In series [1] the test system is experimental amnesia in rat induced by lesioning basal forebrain (BF). The series is described as follows: Anti-amnesic effect: step-through passive avoidance, amnesia induced by BF lesion (ibotenic acid). Type of series: in vivo, Wistar male rat. Conditions: for minimal effective dose: Rattus norvegicus, oral, BF lesion amnesia, read-out: most potent minimal effective dose; for Latency: retention after 24 hours, max 300 s. How it is done:
(§1) As experimental animals, Wistar male rats and ddY male mice were used for the experiments after they were housed for a week under every 12 hours'dark-light cycle at room temperature of 24° to 26° C.
The effect on experimental amnesia in rat induced by lesioning basal forebrain (BF) was evaluated.
The experiment was carried out using an experimental apparatus of step-through type passive avoidance task for rat (made by Ohara-ika-sangyoK.K. ) comprising two compartments of dark and light. That is, the dark compartment (height: 200 cm, width: 150 cm, length: 200 cm) was a black plastic box and was floored with stainless grids for giving an electrical shock so that an electricity might be turned on a determined time after interception of a photobeam placed in the dark compartment. The light compartment made of transparent plastic (height: 200 cm, width: 250 cm, length: 200 cm) was provided adjacent to the dark compartment and was lightened from a location spaced 25 cm above by a 60 W electric lamp. Between the two compartments, there was provided an entrance with a guillotine door which could be opened and closed, and when the guillotine door was opened, a rat could freely move from one compartment to another.
Amnesia was induced by BF lesion. Among presently known methods for inducing amnesia, this method is considered to provide an animal model having the most similar pathology to Alzheimer's disease. The BF lesion was carried out by fixing an animal to a stereotaxic apparatus under nembutal anesthesia, inserting a stainless pipe into the BF area according to the brain map of Koenig, and injecting ibotenic acid bilaterally from the stainless pipe. In the sham-operation group, although craniotomy was carried out, ibotenic acid was not injected and therefore BF was not lesioned. The animals were used for experiments after recovery period of about 4 weeks.
Anti-amnesic effect was evaluated according to the following procedure.
A Wistar male rat (9 week-old) previously conditioned in the dark-light box was put in the light compartment and the guillotine door was opened. When the rat moved into the dark compartment, 150 V electrical shock was given for 3 seconds from the floor grid (aquisition trial). After 24 hours, retention trial was carried out in the same manner as in the aquisition trial, and latency, a period until the animal put in the light compartment entered the dark compartment, was measured maximally 300 seconds.
Every test compound was suspended in a distilled water containing 2.5% of gum arabic and 0.2% of Tween 80. […] The doses were 0.01 to 10 mg/kg.

The target in another series is T1, M1 receptor (Rattus norvegicus, UniProt P08482).
T1 construct: from tissue; host or cells: Wistar male rat cerebral cortex, washed homogenate
T1 sequence (P08482 1-460): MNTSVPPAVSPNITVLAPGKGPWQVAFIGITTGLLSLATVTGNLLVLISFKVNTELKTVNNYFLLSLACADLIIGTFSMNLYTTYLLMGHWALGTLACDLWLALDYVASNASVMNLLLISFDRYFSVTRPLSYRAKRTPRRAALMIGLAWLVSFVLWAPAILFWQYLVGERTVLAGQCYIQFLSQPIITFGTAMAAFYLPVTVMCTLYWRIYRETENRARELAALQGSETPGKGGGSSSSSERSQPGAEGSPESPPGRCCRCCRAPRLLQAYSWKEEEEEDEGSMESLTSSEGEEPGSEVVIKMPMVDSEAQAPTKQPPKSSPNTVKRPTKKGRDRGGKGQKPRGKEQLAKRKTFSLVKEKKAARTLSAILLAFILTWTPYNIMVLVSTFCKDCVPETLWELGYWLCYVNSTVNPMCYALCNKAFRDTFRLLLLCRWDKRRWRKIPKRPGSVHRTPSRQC
The series is described as follows: M1 receptor binding ((3H)pirenzepine, cerebral cortex). Set-up: species or system Wistar male rat. To be noted: for nH (pseudo Hill coefficient) / IC50 / Ki: (3H)pirenzepine, rat cerebral cortex; for IC50: 25° C., 60 minutes, pH 7.4; for Ki: calculated from IC50; for M1 receptor binding ability / selectivity (in words): M1 vs M2; for M1 receptor binding ability compared with muscarinic agonists (in words): vs AF102B and McN-A-343. On the procedure:
The binding ability of the test compounds to M1 receptor was determined according to a modification of the method of Watson et al. (Life Sci., 32, 3001 (1983)). Concretely, 100 volume (W/V) of 10 mM Na--K phosphate buffer (pH 7.4) was added to a cerebral cortex of a Wistar male rat, and after the homogenization with polytron, the homogenate was centrifuged and washed twice. To 1 ml of the test liquid which was prepared by re-suspending the resulting precipitate, were added 20 μl of (^3 H)pirenzepine, M1 receptor specific antagonist, and 20 μl of a test medicinal compound. After the incubation at 25° C. for 60 minutes, the mixture was filtrated and washed with a glass filter, and an amount of (^3 H)pirenzepine bound to the receptor was counted by means of a liquid scintillation counter.
(§2) Ki is an affinity of a medicinal compound for a receptor, which is calculated from the following formula: [formula]
(§3) In addition, nH is pseudo Hill coefficient which represents the number of a binding part of a receptor. When the values of IC50 and Ki are smaller, a binding ability of a medicinal compound to a receptor is stronger.

Another series has as its target T2, M2 receptor (Rattus norvegicus, UniProt P10980).
T2 construct: from tissue; host or cells: rat heart, 40,000 g membrane fraction
T2 sequence (P10980 1-466): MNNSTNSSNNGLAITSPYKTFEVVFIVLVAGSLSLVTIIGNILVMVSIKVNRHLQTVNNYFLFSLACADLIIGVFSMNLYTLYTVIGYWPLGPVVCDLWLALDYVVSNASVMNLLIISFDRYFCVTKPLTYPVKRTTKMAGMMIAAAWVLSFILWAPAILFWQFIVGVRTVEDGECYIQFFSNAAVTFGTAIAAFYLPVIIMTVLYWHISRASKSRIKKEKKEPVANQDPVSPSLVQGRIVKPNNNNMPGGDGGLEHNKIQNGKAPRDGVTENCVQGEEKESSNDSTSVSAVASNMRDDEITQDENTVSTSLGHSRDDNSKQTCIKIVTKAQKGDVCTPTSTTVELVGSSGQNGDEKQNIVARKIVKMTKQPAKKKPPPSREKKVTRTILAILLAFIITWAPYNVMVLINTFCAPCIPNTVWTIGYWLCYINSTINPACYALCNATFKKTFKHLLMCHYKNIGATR
The series is described as follows: M2 receptor binding ((3H)N-methyl scopolamine, heart). How it is done:
The binding ability to M2 receptor was determined according to a modification of the method of Buckley et al. (Mol. Pharmacol., 35, 469 (1989)). Concretely, 10 volume (W/V) of 50 mM Tris-HCl buffer (pH 7.4) was added to rat's heart, and after the homogenization with polytron, the homogenate was centrifuged and washed twice at 500 g for 10 minutes. The resulting supernatant was centrifuged four times at 40,000 g for 20 minutes. To 450 μl of the test liquid which was prepared by re-suspending the resulting precipitate, were added 200 μl of (^3 H)N-methyl scopolamine, a muscarinic specific antagonist, and 100 μl of a test medicinal compound. After the incubation at 22° C. for 90 minutes, the amount of (^3 H)N-methyl scopolamine found was determined.
as §2, §3

Series [2] in a line: Acute toxicity test, oral. The series is classed as in vivo, ddY male mice. Conditions: mouse, in vivo; oral, 2 weeks observation; estimated. On the procedure:
as §1
(§4) With respect to Compounds 1a and 1b shown in Table 1 as test compounds, the acute toxicity was examined using ddY mice according to the following method.
(§5) In each group, six male ddY mice weighing 27 to 30 g were employed. Compounds 1a and 1b suspended in an aqueous solution of 0.5% sodium carboxymethylcellulose were orally administered in a dose of 0.1 ml/10 g body weight. […] The LD50 (mg/kg) values were estimated from the ratio of the number of dead mice to the number of mice used.

The subject of a further series is ddY mice. The series is described as follows: Acute toxicity test, oral. Type of series: in vivo, ddY male mice. To be noted: 100 mg/kg oral, 2 weeks observation, 0.5% sodium carboxymethylcellulose. On the procedure: as §1, §4, §5
Where [3] appears, read: (3H)N-methyl scopolamine, rat heart, 22° C., 90 minutes, pH 7.4.
Where [4] appears, read: 0.1 mg/kg p.o., 1 hour before aquisition trial.
Where [5] appears, read: 1.0 mg/kg p.o., 1 hour before aquisition trial.

The values that follow come from patent publication US5494917A, “Cognition enhancing quinuclidine compound” (Kanegafuchi Kagaku Kogyo Kabushiki Kaisha, priority 1993, dated 1996).

Molecules are shown by their SMILES. Bounds are passed on as bounds.

In the case of `CC1OC2(CS1)CN1CCC2CC1` (stereo not drawn) [AF102B, cis-2-methylspiro(1,3-oxathiolane-5,3') quinuclidine, reference compound], the minimal effective dose in series [1] was 1 mg/kg. Moreover, at M1 receptor, the “nH (pseudo Hill coefficient)” value worked out at 0.8 ± 0.01, the IC50 is 0.729 ± 0.116 µM and the Ki is 0.509 ± 0.08 µM. At M2 receptor (setting [3]), this compound showed an IC50 of over 10 µM.

`C(=C1/CN2CCC1CC2)/c1cccc(Oc2ccccc2)c1` [Compound 1a] displayed a Latency in series [1] (setting [4]) of 38 s. The same compound came in with a Latency in series [1] (setting [5]) of 156 s. Moreover, the minimal effective dose in series [1] was found to be 1 mg/kg. Moreover, at M1 receptor, the “nH (pseudo Hill coefficient)” value is listed as 0.9 ± 0.06; the IC50 stood at 0.221 ± 0.032 µM; the Ki is 0.152 ± 0.022 µM; the “M1 receptor binding ability / selectivity (in words)” value was “strong and specific M1 receptor binding ability”. Besides, the “M1 receptor binding ability compared with muscarinic agonists (in words)” value at M1 receptor was “stronger binding ability to M1 than muscarinic agonists, AF102B (in course of clinical testing) and McN-A-343”. This compound registered an IC50 at M2 receptor (setting [3]) of over 10 µM. For the same compound, the LD50 at 336 h in series [2] is at least 100 mg/kg. Also, the dead mice result in the series with ddY mice is listed as “no dead mice”.

As to `C(=C1\CN2CCC1CC2)/c1cccc(Oc2ccccc2)c1` [Compound 1b], the Latency in series [1] (0.01 mg/kg p.o., 1 hour before aquisition trial) came out at 76 s; in series [1] (setting [4]), 182 s; in series [1] (setting [5]), 139 s; in series [1] (10 mg/kg p.o., 1 hour before aquisition trial), 99 s. The minimal effective dose in series [1] stood at 0.1 mg/kg. In addition, the “nH (pseudo Hill coefficient)” value on M1 receptor was determined as 0.8 ± 0.07; on M2 receptor ((3H)N-methyl scopolamine, rat heart) it was 1.0 ± 0.02. Further, the IC50 at M1 receptor was 0.023 ± 0.003 µM; on M2 receptor (setting [3]) it was 4.4 ± 0.1 µM; on M2 receptor (M2 receptor binding) it was at most 10 µM. In addition, the Ki was 0.016 ± 0.002 µM at M1 receptor and 1.7 ± 0.04 µM at M2 receptor ((3H)N-methyl scopolamine, rat heart, calculated from IC50). The “M1 receptor binding ability / selectivity (in words)” value at M1 receptor was “strong and specific M1 receptor binding ability”. For the same compound, at M1 receptor, the “M1 receptor binding ability compared with muscarinic agonists (in words)” value was “stronger binding ability to M1 than muscarinic agonists, AF102B (in course of clinical testing) and McN-A-343”. Also, on M2 receptor (M2 vs M1), the “M2 receptor binding ability weaker than M1 receptor binding ability” value is on record as “about 190 times”. For the same compound, in series [2], the median lethal dose (LD50) at 336 h was at least 100 mg/kg. Besides, in the series with ddY mice, the dead mice result is reported as “no dead mice”.

In the case of `C[N+](C)(C)CC#CCOC(=O)Nc1cccc(Cl)c1` [McN-A-343, 4[[[3-chlorophenyl)amino]carbonyl]oxy]-N, N, N-trimethyl-2-butyn-1-aminium chloride, reference compound], on M1 receptor, the “nH (pseudo Hill coefficient)” value is recorded as 0.9 ± 0.05, the IC50 stood at 0.842 ± 0.088 µM and the Ki is 0.581 ± 0.061 µM. This compound came in with an IC50 on M2 receptor (setting [3]) of over 10 µM.

With `Nc1c2c(nc3ccccc13)CCCC2` [Tacrine, tetrahydroaminoacridine, reference compound], the Latency stood at 79 s in series [1] (1.0 mg/kg p.o., 30 minutes before aquisition trial) and 188 s in series [1] (5.0 mg/kg p.o., 30 minutes before aquisition trial).

As a reminder, the minimal effective dose is the smallest amount tested that counted as effective. What is called IC50 is the midpoint of a concentration-inhibition curve. Low values mean greater potency, high ones weaker potency. For orientation: Ki means the dissociation constant of the complex between target and ligand, obtained from inhibition or displacement. One may read the LD50 as the dose at which mortality reaches 50%.
